From patent publication US20250282723A1, “AMYLOID TARGETING AGENTS AND METHODS OF USING THE SAME” (The Regents of the University of California, priority 2021, published 2025)

Columns and labels:
aggregated αS [1] = target: T1, aggregated αS (Homo sapiens, UniProt P37840); assay: Estimation of binding constant (Kd) to aggregated αS; details: probes of FIG. 14; aggregated αS 5 μM, increasing concentration of probe, 5% DMSO in nanopure water
T1 construct: made in house; host or cells: E. coli BL21 (plasmid pET5α aSynWT)
Procedure: (§1) Expression and purification of recombinant α-synuclein was followed as reported previously.^32 Briefly, α-synuclein was purified from BL21 E. coli as described: A starter culture of transformed bacteria (pET5α aSynWT) (LB broth with ampicillin [final concentration: 100 μg/mL]) was incubated overnight. Following incubation, 25 mL of the started culture was added to a 500 mL mixture of LB broth and ampicillin. Protein expression was induced by addition of IPTG [0.119 g/500 mL] when an OD600 between 0.5-0.8 was achieved. After 4 h, flasks were centrifuged (5,000×g for 20 min) and the supernatant was removed. The pellets were then re-suspended in 20 mM Tris, 25 mM NaCl, 1 mM EDTA, pH 8.0, transferred into a flask, boiled for 1-2 minutes in a microwave, and boiled in a water bath (90° C.) for 30 minutes. Samples were then centrifuged (18,000×g for 30 min) and the supernatant was collected and filtered through a 0.2 μm filter. α-synuclein protein was further purified using 2×5 ml HiTrapQ HP anion exchange columns (GE, #17-1153-01) followed by Size Exclusion Column (Superdex 200, #28-9893-35). Pure α-synuclein determined by Coomassie and western blot were lyophilized and stored at −80° C. until use.
(§2) Aggregation of purified α-synuclein was followed as reported previously.^33 The lyophilized powder was dissolved to a final concentration of 100 μM in sodium phosphate buffer (50 mM, pH 7.4) with 0.1 mM EDTA and 0.02% sodium azide (w/v) and was aggregated at 37° C. with shaking at 500 rpm for 3 weeks. Fibrillization was confirmed by SDS-PAGE gel and standard ThT assay.
Aggregated Aβ(1-42) or αS at a final concentration of 5 μM (based on the molecular weight of the monomer) was mixed with an increasing concentration of each probe in 5% DMSO in nanopure water. Kd's were calculated as previously described.^34 The measurements for each probe were repeated in technical triplicates and the averages are shown with standard deviations. Kd's for probes 1-3 with aggregated Aβ(1-42) have been reported previously.^31

aggregated αS [2] = target: T1, aggregated αS; assay: Fluorescence emission and fluorescence enhancement of probes bound versus unbound to aggregated αS; format: binding; details: probes of FIG. 14; for Emmax (with αS) / FI with αS: aggregated αS 5 μM, probe 4 μM; for Emmax (with αS): 5% DMSO in nanopure water; for FI with αS: fold increase of fluorescence, bound vs unbound; for FI αS/Aβ: selectivity of fluorescence response to αS fibrils over Aβ fibrils
Procedure: as §1, §2
Aggregated αS or Aβ(1-42) at a final concentration of 5 μM (based on the molecular weight of monomer) was mixed with each fluorescent probe at a final concentration of 4 μM in 5% DMSO in nanopure water. The solution (80 μL total volume) was transferred to a black opaque 96 well plate and the fluorescence excitation and emission were read using a microplate reader. For emission fluorescence enhancement, the relative fluorescence enhancement of the bound versus unbound state was estimated by comparing the fluorescence intensity at λmax of the amyloid-bound state.

[3] = Quantum yield measurements; format: physicochemical; details: 5% DMSO/H2O, reference standard Coumarin 30; for Quantum Yield (Φ): probes of FIG. 14
Procedure: Quantum Yield Measurements. To determine the quantum yield (QY) of compounds ARCAM, 1-5, a procedure that was similar to a previously reported protocol for estimating the QY for Thioflavin T^24 was used. Briefly, the absorbance spectrum of each probe (in 5% Dimethyl Sulfoxide (DMSO)/water (H2O)), in addition to the absorbance spectrum for the reference standard (Coumarin 30, QY=0.67)^27 was measured. The wavelength at which the two normalized absorbance curves intersected was used as the excitation wavelength. A serial dilution of each probe and the standard was made with absorbance values at the excitation wavelength in the range of 0 to 0.1 absorbance units. At each concentration, the emission spectra for each probe and the standard were measured. Technical triplicates of these experiments were performed for all probes, and the averages were recorded. From these emission spectra, the area under the curve was calculated and plotted against the absorbance at each concentration (FIGS. 3-7). The data were fitted to Equation 1 to obtain estimates for QY: […]
where QY represents the quantum yield, A represents the absorbance, E represents the integrated fluorescence emission, η represents the refractive index of the solvent^28,29, and the ‘p’ and ‘r’ subscripts signify the probe or the reference compound, respectively.
Quantum Yield ((D) for each probe was measured as described previously.^31 Briefly, we measured the absorbance spectrum of each probe in 5% DMSO/H2O, as well as the absorbance spectrum for the reference standard (Coumarin 30, =0.67 in Acetonitrile). Both normalized absorbance curves were plotted, and the wavelength of intersection was used as the excitation wavelength. A serial dilution was made for each probe and the standard with absorbance values at the excitation wavelength varying between of 0 to 0.1 absorbance units. At each concentration, the emission spectra for each probe and the standard were measured. Each experiment was repeated in technical triplicates for all probes, and the averages were recorded. The integrated fluorescence emission was calculated and plotted against the absorbance at each concentration. The data were fitted to Equation Si to obtain estimates for Φ: […]
where Φ represents the quantum yield, A represents the absorbance, E represents the integrated fluorescence emission, η represents the refractive index of the solvent, and the ‘p’ and ‘r’ subscripts signify the probe or the reference compound, respectively.

| Structure (SMILES) | Kd (aggregated αS [1]) [µM] | Emmax (with αS) (aggregated αS [2]) [nm] | FI with αS (aggregated αS [2]) | FI αS/Aβ (aggregated αS [2]) | QY [3] | Quantum Yield (Φ) [3] |
| --- | --- | --- | --- | --- | --- | --- |
| COCCOCCOCCNC(=O)C(C#N)=Cc1ccc2cc(N3CCCCC3)ccc2c1 (mixture of isomers) [Compound 1] | 3.9 ± 3.9 | 539 | 3.0 ± 0.5 | 1.4 | 0.0066 ± 0.0023 | 0.0066 |
| COCCOCCOCCNC(=O)/C(C#N)=C/c1ccc2cc(N3CCCCC3C)ccc2c1 (racemic) [Compound 4, (E)-2-cyano-N-(2-(2-(2-methoxyethoxy)ethoxy)ethyl)-3-(6-(2-methylpiperidin-1-yl)naphthalen-2-yl)acrylamide] | 4.5 ± 1.6 | 531 | 3.8 ± 0.4 | 2.0 | 0.0062 ± 0.0003 | 0.0062 |
| CCC1CCCCN1c1ccc2cc(/C=C(\C#N)C(=O)NCCOCCOCCOC)ccc2c1 (racemic) [Compound 5, (E)-2-cyano-3-(6-(2-ethylpiperidin-1-yl)naphthalen-2-yl)-N-(2-(2-(2-methoxyethoxy)ethoxy)ethyl)acrylamide] | 5.8 ± 1.8 | 534 | 4.6 ± 0.7 | 3.8 | 0.0055 ± 0.0010 | 0.0055 |
